Reference: PubChem BioAssay (NCI)
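Step 1: Grow cells in 96-well plates. Step 2: Expose to compound for 48 hours at 5 concentrations. Step 3: Interpolate endpoints linearly; if unreached, use highest concentration. GI50: concentration for 50% inhibition of growth. TGI denotes the concentration required for complete inhibition of growth.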

What follows are compounds tested on SK-OV-3 ovarian (assay: NCI-60 cell line screen, 48 h).
O=C(N/N=C\c1cc(Br)ccc1O)c1ccncc1 was tested, and the GI50 was 4.79 µM and the TGI was greater than 100 µM.
COc1ccccc1/C=C/c1cnccn1 was tested, and the TGI was greater than 10 µM.
For COc1cc2c(cc1OC)C13CCN4CC5=CCOC6CC(=O)N2C1C6C5CC43O (stereo not given), the TGI was greater than 100 µM.
CN(C)Cc1c[nH]c2c1C(=O)c1c(c(O)c3ccccc3c1O)C2=O gave a GI50 of 52 µM and a TGI greater than 100 µM.

The compounds below were run on SR leukemia (assay: NCI-60 cell line screen, 48 h).
Compound N#CC1(C2SCCS2=O)C2=C(C(=O)c3ccccc3C2=O)N2CCCC21 (stereo not given) has a TGI of 20.7 µM.
For Cc1n(Cc2ccc3ccccc3c2)cc[n+]1Cc1ccc2ccccc2c1, the GI50 was 0.552 µM and the TGI was 2.47 µM.
O=C(O)Cc1c(O)ccc2ccccc12 showed a TGI greater than 100 µM.
Work on O=C1/C(=C\c2cccn2Cc2ccccc2)c2ccccc2N1c1c(Cl)cccc1Cl yielded a GI50 greater than 73.4 µM and a TGI greater than 100 µM.
In the case of Cc1sc2nc(NCCc3c[nH]c4ccc(Cl)cc34)[nH]c(=O)c2c1C, the GI50 is reported as 1.81 µM and the TGI is reported as 8.52 µM.
For CSC1(CC(=O)N(C)C)C(=O)Nc2ccccc21 (stereo not given), the TGI was greater than 100 µM.
O=C(O)c1c(-c2nccc3ccccc23)[nH]c(-c2ccccc2)c1S(=O)(=O)O gave a TGI greater than 100 µM.
COc1ccc(/C=c2/sc3n(c2=O)C(c2ccc(OC)c(OC)c2)C2=C(N=3)c3cc(F)ccc3OC2)cc1 (stereo not given) was tested, and the GI50 was 60.9 µM and the TGI was greater than 100 µM.
O=C(O)c1cc(O)c2c(c1)C(C1c3cc(C(=O)O)cc(O)c3C(=O)c3c(OC4OC(CO)C(O)C(O)C4O)cccc31)c1cccc(OC3OC(CO)C(O)C(O)C3O)c1C2=O (stereo not given) gave a GI50 greater than 100 µM and a TGI greater than 100 µM.
O=C(CN(C1CCCCC1)C1CCCCC1)Nc1ccc(S(=O)(=O)c2ccc(NC(=O)CN(C3CCCCC3)C3CCCCC3)cc2)cc1 gave a GI50 of 0.224 µM and a TGI of 1.52 µM.
Cc1c[n+](Cc2ccc3ccccc3c2)cn1Cc1ccc2ccccc2c1 was tested, and the GI50 was 1.46 µM and the TGI was 3.58 µM.
For Nc1nc(Br)nc2c1ncn2C1CC(O)C(CO)O1 (stereo not given), the GI50 was 3.13 µM and the TGI was greater than 22.4 µM.
For Nc1nc(Nc2ccccc2)c2ncn(Cc3cc4c(cc3Br)OCO4)c2n1, the GI50 was 0.0371 µM and the TGI was greater than 100 µM.
CCOC(=O)N1CCN(C(=O)c2ccc(C(F)(F)F)nc2Nc2cc(Cl)ccc2C)CC1 gave a GI50 of 7.74 µM and a TGI of 65.7 µM.
Cc1ccc(Nc2nc(N)c(C(=O)c3ccc(C#N)cc3)s2)cc1 gave a GI50 of 0.0544 µM and a TGI greater than 100 µM.
O=C1c2ccn(CCCCNC(CO)(CO)CO)c2C(=O)c2c1c(O)c1ccccc1c2O showed a GI50 of 2.42 µM and a TGI of 5.76 µM.
Work on CN1CCc2c(Sc3ccc(C(=O)NO)cc3)c3ccccc3n2C1 yielded a GI50 of 2.69 µM and a TGI of 9.92 µM.
For COc1ccc(CNc2c3ccccc3nc3ccccc23)cc1OC, the GI50 was 1.34 µM and the TGI was 7.2 µM.
Compound CN(C)c1ccc2nc3ccc(=O)cc-3sc2c1 has a GI50 of 0.884 µM and a TGI greater than 46.5 µM.
CC(=O)c1c(CBr)n([O-])c2ccccc2[n+]1=O showed a GI50 of 3.22 µM and a TGI of 8.03 µM.
Work on O=C(N/N=C\c1cc(Br)ccc1O)c1ccncc1 yielded a GI50 of 2.45 µM and a TGI greater than 100 µM.
Work on CCN(CC)CC(C)(C)C(=O)/C=C/c1ccc(Cl)c(Cl)c1 yielded a GI50 of 1.75 µM and a TGI of 8.91 µM.

Each compound was assayed on T-47D breast (assay: NCI-60 cell line screen, 48 h).
Work on N#CC1(C2SCCS2=O)C2=C(C(=O)c3ccccc3C2=O)N2CCCC21 (stereo not given) yielded a TGI of 8.16 µM.
With Cc1n(Cc2ccc3ccccc3c2)cc[n+]1Cc1ccc2ccccc2c1 the GI50 was 0.438 µM and the TGI was 5.12 µM.
In the case of O=C(O)Cc1c(O)ccc2ccccc12, the TGI is reported as greater than 100 µM.
With O=C1/C(=C\c2cccn2Cc2ccccc2)c2ccccc2N1c1c(Cl)cccc1Cl the GI50 was 0.266 µM and the TGI was 1.93 µM.
With Cc1sc2nc(NCCc3c[nH]c4ccc(Cl)cc34)[nH]c(=O)c2c1C the GI50 was 2.98 µM and the TGI was 12.7 µM.
Compound CSC1(CC(=O)N(C)C)C(=O)Nc2ccccc21 (stereo not given) has a TGI greater than 100 µM.
Compound O=C(O)c1c(-c2nccc3ccccc23)[nH]c(-c2ccccc2)c1S(=O)(=O)O has a TGI greater than 100 µM.
Work on COc1ccc(/C=c2/sc3n(c2=O)C(c2ccc(OC)c(OC)c2)C2=C(N=3)c3cc(F)ccc3OC2)cc1 (stereo not given) yielded a GI50 of 4.42 µM and a TGI of 39.6 µM.
With O=C(O)c1cc(O)c2c(c1)C(C1c3cc(C(=O)O)cc(O)c3C(=O)c3c(OC4OC(CO)C(O)C(O)C4O)cccc31)c1cccc(OC3OC(CO)C(O)C(O)C3O)c1C2=O (stereo not given) the GI50 was greater than 100 µM and the TGI was greater than 100 µM.
Compound O=C(CN(C1CCCCC1)C1CCCCC1)Nc1ccc(S(=O)(=O)c2ccc(NC(=O)CN(C3CCCCC3)C3CCCCC3)cc2)cc1 has a GI50 of 1.15 µM and a TGI of 3.74 µM.
Cc1c[n+](Cc2ccc3ccccc3c2)cn1Cc1ccc2ccccc2c1 showed a GI50 of 0.371 µM and a TGI of 2.75 µM.
For Nc1nc(Br)nc2c1ncn2C1CC(O)C(CO)O1 (stereo not given), the GI50 was greater than 60.7 µM and the TGI was greater than 100 µM.
Nc1nc(Nc2ccccc2)c2ncn(Cc3cc4c(cc3Br)OCO4)c2n1 showed a GI50 of less than 0.01 µM and a TGI of 21.4 µM.
CCOC(=O)N1CCN(C(=O)c2ccc(C(F)(F)F)nc2Nc2cc(Cl)ccc2C)CC1 was tested, and the GI50 was greater than 100 µM and the TGI was greater than 100 µM.
For Cc1ccc(Nc2nc(N)c(C(=O)c3ccc(C#N)cc3)s2)cc1, the GI50 was 0.384 µM and the TGI was greater than 100 µM.
For O=C1c2ccn(CCCCNC(CO)(CO)CO)c2C(=O)c2c1c(O)c1ccccc1c2O, the GI50 was 2.76 µM and the TGI was greater than 22.1 µM.
COc1ccc(-c2cc(-c3cccn3C)c(C#N)c(N)n2)cc1OC gave a GI50 greater than 100 µM and a TGI greater than 100 µM.
Work on CN1CCc2c(Sc3ccc(C(=O)NO)cc3)c3ccccc3n2C1 yielded a GI50 of 1.62 µM and a TGI of 5.84 µM.
COc1ccc(CNc2c3ccccc3nc3ccccc23)cc1OC showed a GI50 of 3.43 µM and a TGI of 14.1 µM.
CN(C)c1ccc2nc3ccc(=O)cc-3sc2c1 was tested, and the GI50 was 1 µM and the TGI was greater than 100 µM.
CC(=O)c1c(CBr)n([O-])c2ccccc2[n+]1=O was tested, and the GI50 was 2.87 µM and the TGI was 11.4 µM.
With c1ccc2c3ccn4cc5c(cc4c-3nc2c1)CCCC5 the GI50 was 3.27 µM and the TGI was 15 µM.
OCCCCC#Cc1ccccc1C#Cc1cccc(O)c1 gave a GI50 of 14.4 µM and a TGI of 34.7 µM.
With O=C(N/N=C\c1cc(Br)ccc1O)c1ccncc1 the GI50 was 2.19 µM and the TGI was 62.5 µM.
In the case of COc1ccccc1/C=C/c1cnccn1, the TGI is reported as greater than 10 µM.
In the case of CCN(CC)CC(C)(C)C(=O)/C=C/c1ccc(Cl)c(Cl)c1, the GI50 is reported as 1.52 µM and the TGI is reported as 4.03 µM.
Compound COc1cc2c(cc1OC)C13CCN4CC5=CCOC6CC(=O)N2C1C6C5CC43O (stereo not given) has a TGI greater than 100 µM.
For CN(C)Cc1c[nH]c2c1C(=O)c1c(c(O)c3ccccc3c1O)C2=O, the GI50 was 11.4 µM and the TGI was greater than 100 µM.

These compounds were tested on TK-10 renal (assay: NCI-60 cell line screen, 48 h).
N#CC1(C2SCCS2=O)C2=C(C(=O)c3ccccc3C2=O)N2CCCC21 (stereo not given) gave a TGI of 43.7 µM.
Compound Cc1n(Cc2ccc3ccccc3c2)cc[n+]1Cc1ccc2ccccc2c1 has a GI50 of 1.77 µM and a TGI of 5.1 µM.
O=C(O)Cc1c(O)ccc2ccccc12 gave a TGI greater than 100 µM.
Compound O=C1/C(=C\c2cccn2Cc2ccccc2)c2ccccc2N1c1c(Cl)cccc1Cl has a GI50 of 0.978 µM and a TGI greater than 100 µM.
Cc1sc2nc(NCCc3c[nH]c4ccc(Cl)cc34)[nH]c(=O)c2c1C was tested, and the GI50 was 3.5 µM and the TGI was 11.5 µM.
CSC1(CC(=O)N(C)C)C(=O)Nc2ccccc21 (stereo not given) was tested, and the TGI was greater than 100 µM.
For O=C(O)c1c(-c2nccc3ccccc23)[nH]c(-c2ccccc2)c1S(=O)(=O)O, the TGI was greater than 100 µM.
For COc1ccc(/C=c2/sc3n(c2=O)C(c2ccc(OC)c(OC)c2)C2=C(N=3)c3cc(F)ccc3OC2)cc1 (stereo not given), the GI50 was 29 µM and the TGI was greater than 87.6 µM.
For O=C(O)c1cc(O)c2c(c1)C(C1c3cc(C(=O)O)cc(O)c3C(=O)c3c(OC4OC(CO)C(O)C(O)C4O)cccc31)c1cccc(OC3OC(CO)C(O)C(O)C3O)c1C2=O (stereo not given), the GI50 was greater than 100 µM and the TGI was greater than 100 µM.
Work on O=C(CN(C1CCCCC1)C1CCCCC1)Nc1ccc(S(=O)(=O)c2ccc(NC(=O)CN(C3CCCCC3)C3CCCCC3)cc2)cc1 yielded a GI50 of 2.24 µM and a TGI of 6.03 µM.
Cc1c[n+](Cc2ccc3ccccc3c2)cn1Cc1ccc2ccccc2c1 was tested, and the GI50 was 1.82 µM and the TGI was 3.73 µM.
Work on Nc1nc(Br)nc2c1ncn2C1CC(O)C(CO)O1 (stereo not given) yielded a GI50 greater than 100 µM and a TGI greater than 100 µM.
With Nc1nc(Nc2ccccc2)c2ncn(Cc3cc4c(cc3Br)OCO4)c2n1 the GI50 was 0.114 µM and the TGI was 18.1 µM.
CCOC(=O)N1CCN(C(=O)c2ccc(C(F)(F)F)nc2Nc2cc(Cl)ccc2C)CC1 gave a GI50 of 17.4 µM and a TGI of 88.9 µM.
